From US9481885B2, “Methods and compositions related to miR-21 and miR-29a, exosome inhibition, and cancer metastasis” (Ohio State Innovation Foundation, priority 2011, dated 2016)

Target: T1, human TLR8 (Homo sapiens, UniProt Q9NR97)
T1 construct: host or cells: HEK-Blue TLR8 293 (TLR8-HEK-293)
T1 sequence (Q9NR97 27-1041): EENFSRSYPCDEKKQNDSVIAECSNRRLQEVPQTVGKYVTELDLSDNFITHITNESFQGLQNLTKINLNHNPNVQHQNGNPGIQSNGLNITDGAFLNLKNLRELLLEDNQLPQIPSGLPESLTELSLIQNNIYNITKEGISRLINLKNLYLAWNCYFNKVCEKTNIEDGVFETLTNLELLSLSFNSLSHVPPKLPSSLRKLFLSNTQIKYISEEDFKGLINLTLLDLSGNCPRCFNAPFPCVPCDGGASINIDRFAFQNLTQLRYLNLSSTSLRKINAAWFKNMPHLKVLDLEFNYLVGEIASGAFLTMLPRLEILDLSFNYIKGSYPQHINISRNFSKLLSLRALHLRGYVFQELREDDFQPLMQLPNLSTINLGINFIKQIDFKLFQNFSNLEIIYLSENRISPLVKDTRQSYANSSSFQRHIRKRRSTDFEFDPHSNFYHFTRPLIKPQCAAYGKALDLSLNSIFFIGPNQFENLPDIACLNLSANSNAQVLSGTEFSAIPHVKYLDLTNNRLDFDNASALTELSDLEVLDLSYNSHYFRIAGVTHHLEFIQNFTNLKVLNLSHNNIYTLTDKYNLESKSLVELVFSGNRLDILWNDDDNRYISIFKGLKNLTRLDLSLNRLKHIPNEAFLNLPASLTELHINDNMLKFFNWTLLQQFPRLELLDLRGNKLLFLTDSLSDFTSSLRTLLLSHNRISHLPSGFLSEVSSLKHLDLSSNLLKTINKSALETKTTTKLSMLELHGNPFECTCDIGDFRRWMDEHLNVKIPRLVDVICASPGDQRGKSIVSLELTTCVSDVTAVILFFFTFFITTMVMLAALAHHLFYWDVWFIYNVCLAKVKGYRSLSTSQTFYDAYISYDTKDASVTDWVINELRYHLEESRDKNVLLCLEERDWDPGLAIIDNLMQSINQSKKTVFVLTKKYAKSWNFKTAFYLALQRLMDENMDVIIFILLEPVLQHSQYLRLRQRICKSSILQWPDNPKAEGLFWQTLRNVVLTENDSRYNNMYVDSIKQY
Experiment: NF-κB reporter assay (QUANTI-Blue) in TLR8-HEK-293 cells
Assay type: cell-based
Conditions: Dotap formulations of miRNA
Experimental: To investigate whether miRNA-induced activation of TLRs also occurs in human cells, an NF-κB reporter assay was performed in HEK-293 cells. NF-κB, a transcription factor modulating the expression of several cytokine genes, is activated by several TLRs, including the only ssRNA-binding human TLRs, TLR7 and TLR8. Therefore, we treated HEK-293 cells expressing human TLR7 or TLR8 (hereafter, TLR7- and TLR8-HEK-293 cells, respectively) with Dotap alone or with Dotap formulations of miR-16, -21, -29a, or -147 and performed an NF-κB reporter assay. As positive controls Gardiquimod and ssRNA40 were used, specific agonists of TLR7 and TLR8, respectively. […] To confirm this conclusion, transfected were TLR8-HEK-293 cells with a plasmid encoding a dominant negative form of TLR8 (TLR8DN) and treated these cells with the miRNAs of interest. In TLR8DN cells, the activation of NF-κB by miR-21 and miR-29a was abolished (FIG. 3F). […] NF-κB activity was assessed by QUANTI-Blue Assay (Invivogen). […] Levels of SEAP can be easily determined with QUANTI-Blue, a detection medium that turns purple/blue in the presence of alkaline phosphatase. […] The plate was then incubated at 37° C. for 1-3 h and SEAP levels were determined by reading the plate with a spectrophotometer at 620-655 nm (SpectraMax, Molecular Devices).

miR-147: synthetic mature miRNA (SEQ ID NO: 3), sequence similar to RNA33, Dotap formulation (GUGUGUGGAAAUGCUUCUGC; DOTAP formulation, further chemistry not given here)
NF-κB activation: activated
